Laboratory results reported in article PMC3639963, “A New Class of Small Molecule Inhibitor of BMP Signaling” (PLoS ONE, 2013).

Legend:
Test in all cases: Nanosyn kinase profiling
Format in all cases: biochemical
Details in all cases: read-out: Percentage inhibition; for inhibition at 0.1 µM: 0.1 µM inhibitor; for inhibition at 1 µM: 1 µM inhibitor
ARK5 = biological target: T1, ARK5 (Homo sapiens, UniProt O60285)
T1 construct: purchased Nanosyn (enzymatic panel); SGC in-house recombinant human kinases (DSF panel); Invitrogen (ALK1-6)
T1 sequence (O60285 1-661): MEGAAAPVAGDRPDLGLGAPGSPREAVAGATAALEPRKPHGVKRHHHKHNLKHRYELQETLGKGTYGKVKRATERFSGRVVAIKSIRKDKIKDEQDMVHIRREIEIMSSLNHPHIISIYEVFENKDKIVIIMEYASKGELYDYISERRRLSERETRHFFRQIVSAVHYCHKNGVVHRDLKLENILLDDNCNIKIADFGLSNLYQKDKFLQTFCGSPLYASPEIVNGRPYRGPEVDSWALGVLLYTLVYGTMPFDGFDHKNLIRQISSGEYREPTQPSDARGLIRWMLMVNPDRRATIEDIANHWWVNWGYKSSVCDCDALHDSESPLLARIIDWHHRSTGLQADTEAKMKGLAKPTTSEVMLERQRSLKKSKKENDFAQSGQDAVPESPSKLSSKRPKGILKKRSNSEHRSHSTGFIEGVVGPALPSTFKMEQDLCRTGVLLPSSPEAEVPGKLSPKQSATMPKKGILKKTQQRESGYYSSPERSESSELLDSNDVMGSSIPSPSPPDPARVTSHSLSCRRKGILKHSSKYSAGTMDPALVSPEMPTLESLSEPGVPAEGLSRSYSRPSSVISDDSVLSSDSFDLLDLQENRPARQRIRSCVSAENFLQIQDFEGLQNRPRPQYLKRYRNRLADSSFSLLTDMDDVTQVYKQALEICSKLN
Procedure: (§1) Percentage inhibition was determined for each kinase at both 0.1 µM and 1 µM inhibitor concentration (supplemental Table S2). […]. […]. When visualized on a kinase phylogenetic tree, these were primarily clustered within the receptor tyrosine kinases (TKs) as well as the calmodulin-dependent kinases (CAMKs) (Figure 2C).
(§2) Inhibitor selectivity profiling against 200 human kinases at 0.1 and 1 µM inhibitor concentration was performed by Nanosyn (www.nanosyn.com).

LOK = biological target: T2, LOK (Homo sapiens, UniProt O94804)
T2 construct: purchased Nanosyn (enzymatic panel); SGC in-house recombinant human kinases (DSF panel); Invitrogen (ALK1-6)
Procedure: as §1, §2

EPHA4 = biological target: T3, EPHA4 (Homo sapiens, UniProt P54764)
T3 construct: purchased Nanosyn (enzymatic panel); SGC in-house recombinant human kinases (DSF panel); Invitrogen (ALK1-6)
Procedure: as §1, §2

AKT3 = biological target: T4, AKT3 (Homo sapiens, UniProt Q9Y243)
T4 construct: purchased Nanosyn (enzymatic panel); SGC in-house recombinant human kinases (DSF panel); Invitrogen (ALK1-6)
Procedure: as §1, §2

EGFR = biological target: T5, EGFR (Homo sapiens, UniProt P00533)
T5 construct: purchased Nanosyn (enzymatic panel); SGC in-house recombinant human kinases (DSF panel); Invitrogen (ALK1-6)
Procedure: as §1, §2

PDK1 = biological target: T6, PDK1 (Homo sapiens, UniProt O15530)
T6 construct: purchased Nanosyn (enzymatic panel); SGC in-house recombinant human kinases (DSF panel); Invitrogen (ALK1-6)
T6 sequence (O15530 1-556): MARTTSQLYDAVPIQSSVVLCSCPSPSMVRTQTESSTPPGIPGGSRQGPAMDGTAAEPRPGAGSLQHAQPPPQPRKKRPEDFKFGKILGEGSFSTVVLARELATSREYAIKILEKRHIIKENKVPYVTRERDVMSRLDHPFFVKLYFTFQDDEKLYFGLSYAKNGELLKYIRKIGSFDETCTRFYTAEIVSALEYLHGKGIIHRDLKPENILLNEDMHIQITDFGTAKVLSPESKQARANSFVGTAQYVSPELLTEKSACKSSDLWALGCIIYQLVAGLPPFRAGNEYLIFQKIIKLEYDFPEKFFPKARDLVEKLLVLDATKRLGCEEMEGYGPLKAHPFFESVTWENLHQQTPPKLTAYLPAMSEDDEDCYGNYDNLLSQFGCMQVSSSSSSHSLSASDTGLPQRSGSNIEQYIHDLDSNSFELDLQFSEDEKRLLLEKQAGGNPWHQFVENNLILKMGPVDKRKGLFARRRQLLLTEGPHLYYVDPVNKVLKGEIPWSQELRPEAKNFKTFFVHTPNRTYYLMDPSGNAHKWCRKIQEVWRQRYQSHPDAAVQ
Procedure: as §1, §2

MSK2 = biological target: T7, MSK2 (Homo sapiens, UniProt O75676)
T7 construct: purchased Nanosyn (enzymatic panel); SGC in-house recombinant human kinases (DSF panel); Invitrogen (ALK1-6)
Procedure: as §1, §2

FER = biological target: T8, FER (Homo sapiens, UniProt P16591)
T8 construct: purchased Nanosyn (enzymatic panel); SGC in-house recombinant human kinases (DSF panel); Invitrogen (ALK1-6)
Procedure: as §1, §2

PYK2 = biological target: T9, PYK2 (Homo sapiens, UniProt Q14289)
T9 construct: purchased Nanosyn (enzymatic panel); SGC in-house recombinant human kinases (DSF panel); Invitrogen (ALK1-6)
Procedure: as §1, §2

DYRK2 = biological target: T10, DYRK2 (Homo sapiens, UniProt Q92630)
T10 construct: purchased Nanosyn (enzymatic panel); SGC in-house recombinant human kinases (DSF panel); Invitrogen (ALK1-6)
T10 sequence (Q92630 1-601): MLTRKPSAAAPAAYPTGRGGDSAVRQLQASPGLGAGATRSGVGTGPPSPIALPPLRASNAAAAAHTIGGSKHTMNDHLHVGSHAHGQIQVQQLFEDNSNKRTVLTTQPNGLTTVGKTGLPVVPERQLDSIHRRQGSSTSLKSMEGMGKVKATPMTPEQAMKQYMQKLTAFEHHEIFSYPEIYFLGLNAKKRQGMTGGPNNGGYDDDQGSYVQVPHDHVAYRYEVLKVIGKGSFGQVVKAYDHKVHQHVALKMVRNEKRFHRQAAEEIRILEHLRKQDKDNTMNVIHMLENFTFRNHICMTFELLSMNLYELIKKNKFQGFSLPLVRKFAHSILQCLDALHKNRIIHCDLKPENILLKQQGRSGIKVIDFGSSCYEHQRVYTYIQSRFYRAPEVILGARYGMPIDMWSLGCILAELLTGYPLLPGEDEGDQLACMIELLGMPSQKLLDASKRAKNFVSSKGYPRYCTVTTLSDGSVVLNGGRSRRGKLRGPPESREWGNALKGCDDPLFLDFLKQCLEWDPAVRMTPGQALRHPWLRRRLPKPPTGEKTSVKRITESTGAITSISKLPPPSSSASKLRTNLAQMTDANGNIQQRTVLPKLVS
Procedure: as §1, §2

MET = biological target: T11, MET (Homo sapiens, UniProt P08581)
T11 construct: purchased Nanosyn (enzymatic panel); SGC in-house recombinant human kinases (DSF panel); Invitrogen (ALK1-6)
Procedure: as §1, §2

MARK3 = biological target: T12, MARK3 (Homo sapiens, UniProt P27448)
T12 construct: purchased Nanosyn (enzymatic panel); SGC in-house recombinant human kinases (DSF panel); Invitrogen (ALK1-6)
Procedure: as §1, §2

CAMK2δ = biological target: T13, CAMK2δ (Homo sapiens, UniProt Q13557)
T13 construct: purchased Nanosyn (enzymatic panel); SGC in-house recombinant human kinases (DSF panel); Invitrogen (ALK1-6)
Procedure: as §1, §2

PHKγ1 = biological target: T14, PHKγ1 (Homo sapiens, UniProt Q16816)
T14 construct: purchased Nanosyn (enzymatic panel); SGC in-house recombinant human kinases (DSF panel); Invitrogen (ALK1-6)
Procedure: as §1, §2

T7 sequence (O75676 whole entry): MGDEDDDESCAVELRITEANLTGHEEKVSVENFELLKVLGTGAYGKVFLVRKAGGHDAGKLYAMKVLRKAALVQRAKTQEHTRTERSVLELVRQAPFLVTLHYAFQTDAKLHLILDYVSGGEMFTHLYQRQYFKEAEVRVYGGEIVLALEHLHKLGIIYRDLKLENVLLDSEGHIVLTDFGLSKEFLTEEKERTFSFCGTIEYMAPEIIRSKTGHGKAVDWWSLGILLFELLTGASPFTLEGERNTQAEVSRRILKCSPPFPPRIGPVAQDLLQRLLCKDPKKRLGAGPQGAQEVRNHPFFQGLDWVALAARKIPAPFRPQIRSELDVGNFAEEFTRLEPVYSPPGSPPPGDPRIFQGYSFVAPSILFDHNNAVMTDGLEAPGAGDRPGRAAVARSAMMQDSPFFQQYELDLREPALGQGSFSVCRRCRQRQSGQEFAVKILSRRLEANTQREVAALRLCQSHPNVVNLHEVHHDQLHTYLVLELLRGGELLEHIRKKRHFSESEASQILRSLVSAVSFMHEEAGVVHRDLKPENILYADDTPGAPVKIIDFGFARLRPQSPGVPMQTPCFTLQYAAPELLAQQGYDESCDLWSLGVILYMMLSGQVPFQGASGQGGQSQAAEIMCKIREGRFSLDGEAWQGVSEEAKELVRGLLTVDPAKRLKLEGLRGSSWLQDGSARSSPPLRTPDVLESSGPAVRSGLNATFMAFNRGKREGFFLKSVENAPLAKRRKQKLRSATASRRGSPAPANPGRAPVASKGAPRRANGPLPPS
T3 sequence (P54764 20-986): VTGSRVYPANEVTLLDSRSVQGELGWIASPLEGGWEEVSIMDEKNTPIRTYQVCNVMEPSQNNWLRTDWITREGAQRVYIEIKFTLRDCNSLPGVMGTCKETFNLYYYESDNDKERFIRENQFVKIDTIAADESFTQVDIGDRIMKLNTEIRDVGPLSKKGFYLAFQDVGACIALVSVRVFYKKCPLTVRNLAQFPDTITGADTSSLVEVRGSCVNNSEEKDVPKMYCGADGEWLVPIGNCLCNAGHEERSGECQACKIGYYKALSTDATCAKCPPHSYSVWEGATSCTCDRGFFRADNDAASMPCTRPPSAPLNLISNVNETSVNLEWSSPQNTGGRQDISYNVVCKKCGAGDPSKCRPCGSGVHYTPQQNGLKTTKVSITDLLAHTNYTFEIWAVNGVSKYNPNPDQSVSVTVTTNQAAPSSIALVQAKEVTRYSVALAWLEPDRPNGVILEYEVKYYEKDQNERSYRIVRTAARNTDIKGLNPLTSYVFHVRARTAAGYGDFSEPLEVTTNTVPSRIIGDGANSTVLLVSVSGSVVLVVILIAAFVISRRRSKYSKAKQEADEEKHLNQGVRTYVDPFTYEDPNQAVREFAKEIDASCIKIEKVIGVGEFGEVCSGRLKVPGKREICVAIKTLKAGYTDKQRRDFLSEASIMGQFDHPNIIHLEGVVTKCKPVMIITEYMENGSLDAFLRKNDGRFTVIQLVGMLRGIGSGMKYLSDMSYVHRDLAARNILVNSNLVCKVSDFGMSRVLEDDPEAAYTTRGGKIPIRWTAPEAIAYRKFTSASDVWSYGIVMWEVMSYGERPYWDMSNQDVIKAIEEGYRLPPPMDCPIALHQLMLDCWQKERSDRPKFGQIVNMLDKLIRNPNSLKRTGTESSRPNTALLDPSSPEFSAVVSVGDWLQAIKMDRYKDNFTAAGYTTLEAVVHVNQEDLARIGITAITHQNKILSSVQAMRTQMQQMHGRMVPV
T14 sequence (Q16816 whole entry): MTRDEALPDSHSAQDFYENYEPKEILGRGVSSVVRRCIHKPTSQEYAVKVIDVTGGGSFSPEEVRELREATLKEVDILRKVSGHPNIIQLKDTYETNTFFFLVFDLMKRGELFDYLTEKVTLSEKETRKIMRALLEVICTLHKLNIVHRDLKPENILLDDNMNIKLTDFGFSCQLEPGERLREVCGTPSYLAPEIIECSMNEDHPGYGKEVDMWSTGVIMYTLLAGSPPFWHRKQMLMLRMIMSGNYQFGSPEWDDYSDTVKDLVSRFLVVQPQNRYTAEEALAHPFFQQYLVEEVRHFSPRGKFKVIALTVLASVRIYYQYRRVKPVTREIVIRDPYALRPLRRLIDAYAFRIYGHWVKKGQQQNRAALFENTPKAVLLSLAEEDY
T11 sequence (P08581 25-1390): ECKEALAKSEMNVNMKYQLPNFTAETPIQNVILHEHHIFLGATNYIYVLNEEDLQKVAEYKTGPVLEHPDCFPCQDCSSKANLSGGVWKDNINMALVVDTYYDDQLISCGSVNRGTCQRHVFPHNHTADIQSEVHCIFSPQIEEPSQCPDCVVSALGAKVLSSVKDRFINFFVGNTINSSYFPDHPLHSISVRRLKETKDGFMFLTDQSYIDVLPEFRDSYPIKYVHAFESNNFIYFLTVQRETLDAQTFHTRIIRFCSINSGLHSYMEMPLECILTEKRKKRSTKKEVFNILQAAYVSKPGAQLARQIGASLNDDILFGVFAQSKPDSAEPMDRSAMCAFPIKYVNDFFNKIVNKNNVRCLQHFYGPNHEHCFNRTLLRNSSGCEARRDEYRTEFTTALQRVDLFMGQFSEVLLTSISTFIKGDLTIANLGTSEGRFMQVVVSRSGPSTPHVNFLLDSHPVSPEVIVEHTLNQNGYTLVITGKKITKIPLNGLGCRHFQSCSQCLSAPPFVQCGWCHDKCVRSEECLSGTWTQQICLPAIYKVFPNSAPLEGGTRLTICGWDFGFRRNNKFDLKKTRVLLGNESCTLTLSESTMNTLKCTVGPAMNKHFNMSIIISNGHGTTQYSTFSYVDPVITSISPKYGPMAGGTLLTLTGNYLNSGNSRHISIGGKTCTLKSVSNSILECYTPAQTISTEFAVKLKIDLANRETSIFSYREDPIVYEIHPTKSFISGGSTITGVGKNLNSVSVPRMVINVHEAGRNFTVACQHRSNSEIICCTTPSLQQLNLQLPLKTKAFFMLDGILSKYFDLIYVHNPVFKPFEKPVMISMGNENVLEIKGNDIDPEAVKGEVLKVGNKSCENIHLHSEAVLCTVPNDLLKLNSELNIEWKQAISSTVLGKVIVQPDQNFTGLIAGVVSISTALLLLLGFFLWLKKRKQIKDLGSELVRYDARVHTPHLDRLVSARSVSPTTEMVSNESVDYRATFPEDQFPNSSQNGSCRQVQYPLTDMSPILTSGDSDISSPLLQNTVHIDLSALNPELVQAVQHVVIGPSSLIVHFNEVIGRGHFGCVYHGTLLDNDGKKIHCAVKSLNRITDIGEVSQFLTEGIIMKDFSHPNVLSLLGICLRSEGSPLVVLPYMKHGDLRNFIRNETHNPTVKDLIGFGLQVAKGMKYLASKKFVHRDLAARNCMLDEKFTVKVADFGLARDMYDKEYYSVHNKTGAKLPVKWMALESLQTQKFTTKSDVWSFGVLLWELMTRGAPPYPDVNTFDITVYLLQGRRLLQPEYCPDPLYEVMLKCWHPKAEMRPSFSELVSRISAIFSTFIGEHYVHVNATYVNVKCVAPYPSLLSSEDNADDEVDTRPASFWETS
T4 sequence (Q9Y243 whole entry): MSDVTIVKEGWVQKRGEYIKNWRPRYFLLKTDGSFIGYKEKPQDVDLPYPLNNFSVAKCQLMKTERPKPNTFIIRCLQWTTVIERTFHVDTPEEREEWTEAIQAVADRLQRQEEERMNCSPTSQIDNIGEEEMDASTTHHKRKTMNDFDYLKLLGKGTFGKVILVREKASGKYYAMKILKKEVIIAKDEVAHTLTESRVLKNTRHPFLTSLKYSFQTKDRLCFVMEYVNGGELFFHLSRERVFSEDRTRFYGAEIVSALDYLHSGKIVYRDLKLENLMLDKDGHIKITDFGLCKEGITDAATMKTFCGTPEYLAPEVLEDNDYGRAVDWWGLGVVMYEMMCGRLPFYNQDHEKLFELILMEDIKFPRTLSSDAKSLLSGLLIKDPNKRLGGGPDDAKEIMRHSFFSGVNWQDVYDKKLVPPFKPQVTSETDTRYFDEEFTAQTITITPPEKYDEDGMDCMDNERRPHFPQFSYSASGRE
T13 sequence (Q13557 whole entry): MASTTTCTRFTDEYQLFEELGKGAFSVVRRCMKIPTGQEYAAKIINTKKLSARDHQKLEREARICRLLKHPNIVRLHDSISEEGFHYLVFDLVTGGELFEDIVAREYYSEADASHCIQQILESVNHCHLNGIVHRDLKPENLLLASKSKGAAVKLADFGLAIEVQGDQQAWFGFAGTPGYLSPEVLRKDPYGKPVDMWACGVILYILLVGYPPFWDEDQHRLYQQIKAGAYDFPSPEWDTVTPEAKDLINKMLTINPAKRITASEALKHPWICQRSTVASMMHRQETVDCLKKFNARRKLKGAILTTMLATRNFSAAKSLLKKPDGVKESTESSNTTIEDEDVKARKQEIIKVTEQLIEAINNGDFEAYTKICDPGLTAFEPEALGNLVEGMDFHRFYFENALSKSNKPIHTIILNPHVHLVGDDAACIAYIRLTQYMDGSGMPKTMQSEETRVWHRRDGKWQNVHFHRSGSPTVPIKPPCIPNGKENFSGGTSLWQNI

| SMILES | inhibition at 0.1 µM (ARK5) [%] | inhibition at 1 µM (ARK5) [%] | inhibition at 0.1 µM (LOK) [%] | inhibition at 1 µM (LOK) [%] | inhibition at 0.1 µM (EPHA4) [%] | inhibition at 1 µM (EPHA4) [%] | inhibition at 0.1 µM (AKT3) [%] | inhibition at 1 µM (AKT3) [%] | inhibition at 0.1 µM (EGFR) [%] | inhibition at 1 µM (EGFR) [%] | inhibition at 0.1 µM (PDK1) [%] | inhibition at 1 µM (PDK1) [%] | inhibition at 0.1 µM (MSK2) [%] | inhibition at 1 µM (MSK2) [%] | inhibition at 0.1 µM (FER) [%] | inhibition at 1 µM (FER) [%] | inhibition at 0.1 µM (PYK2) [%] | inhibition at 1 µM (PYK2) [%] | inhibition at 0.1 µM (DYRK2) [%] | inhibition at 1 µM (DYRK2) [%] | further results |
| --- | --- | --- | --- | --- | --- | --- | --- | --- | --- | --- | --- | --- | --- | --- | --- | --- | --- | --- | --- | --- | --- |
| COc1cc(-c2cc(-c3cccc(O)c3)cnc2N)cc(OC)c1OC [K02288, 3-[6-amino-5-(3,4,5-trimethoxy-phenyl)-pyridin-3-yl]-phenol] | 1.1 | 4.1 | 3.5 | 25 | -2 | 17 | -2 | 1.2 | 2.4 | 12 | 0 | 0.5 | -1 | 1 | 0.8 | 7.5 | -1 | 0 | -1 | -3 | inhibition at 0.1 µM (MET): 0.6%; inhibition at 1 µM (MET): -2%; inhibition at 0.1 µM (MARK3): 2.6%; inhibition at 1 µM (MARK3): 5.6%; inhibition at 0.1 µM (CAMK2δ): -1%; inhibition at 1 µM (CAMK2δ): 1.4%; inhibition at 0.1 µM (PHKγ1): 1.8%; inhibition at 1 µM (PHKγ1): 4.4% |
| c1ccc2c(-c3cnn4cc(-c5ccc(N6CCNCC6)cc5)cnc34)ccnc2c1 [LDN-193189] | 16 | 56 | 8.3 | 38 | 7.1 | 10 | 0.2 | 1.5 | 1.5 | 4.8 | 1.1 | 1.9 | 0.9 | 0.8 | 2.8 | 3.7 | 4.6 | 9 | 2.3 | 0.2 | inhibition at 0.1 µM (MET): 6.2%; inhibition at 1 µM (MET): 8.4%; inhibition at 0.1 µM (MARK3): 11%; inhibition at 1 µM (MARK3): 63%; inhibition at 0.1 µM (CAMK2δ): 3.1%; inhibition at 1 µM (CAMK2δ): 8.7%; inhibition at 0.1 µM (PHKγ1): 5.2%; inhibition at 1 µM (PHKγ1): 27% |
